Assay [1] relates to A549. The assay can be described thus: Cytotoxicity against human A549 cells assessed as decrease in cell proliferation after 48 hrs by MTT colorimetric assay. It counts as functional, cell-based. As to conditions: A549, 48 h. (In general: Tetrazolium dyes change colour on reduction, which living cells bring about.)
Assay [2] concerns Hep 3B2. Put plainly: Cytotoxicity against human Hep3B cells assessed as decrease in cell proliferation after 48 hrs by MTT colorimetric assay. It counts as functional, cell-based.
Assay [3] has as its system U-251. Put plainly: Cytotoxicity against human U251 cells assessed as decrease in cell proliferation after 48 hrs by MTT colorimetric assay. It counts as functional, cell-based. As to conditions: U-251, 48 h.
In assay [4] the test system is Bcap37. Put plainly: Cytotoxicity against human Bcap37 cells assessed as decrease in cell proliferation after 48 hrs by MTT colorimetric assay. It counts as functional, cell-based. As to conditions: Bcap37, 48 h.
For assay [5], the system named is HepG2. The assay can be described thus: Potency index, ratio of sarsasapogenin IC50 to test compound IC50 for human HepG2 cells. It counts as functional.
Assay [6] relates to MCF7. The assay can be described thus: Cytotoxicity against human MCF7 cells assessed as decrease in cell proliferation after 48 hrs by MTT colorimetric assay. It counts as functional, cell-based. As to conditions: Homo sapiens, MCF7, 48 h.
Assay [7] concerns HepG2. The assay can be described thus: Cytotoxicity against human HepG2 cells assessed as decrease in cell proliferation after 48 hrs by MTT colorimetric assay. It counts as functional, cell-based. As to conditions: HepG2, 48 h.
In assay [8] the test system is A549. Put plainly: Potency index, ratio of sarsasapogenin IC50 to test compound IC50 for human A549 cells. It counts as functional.

As for `C[C@@H](CC[C@H]1O[C@H]2C[C@H]3[C@@H]4CC[C@@H]5C[C@@H](OCc6ccc(F)cc6)CC[C@]5(C)[C@H]4CC[C@]3(C)[C@H]2[C@@H]1C)CN1CCNCC1`, the half-inhibitory concentration (IC50) (in general, the concentration that gives 50% inhibition) in assay [1] stood at 14.3 µM; in assay [2], 16.8 µM; in assay [3] it was 31.3 µM; in assay [4], 15.6 µM; in assay [6], 16.7 µM; in assay [7], 8.61 µM. Further, the “Ratio IC50” value in assay [5] was determined as 4.7.

Turning to `CCN(CC)C[C@@H](C)CC[C@H]1O[C@H]2C[C@H]3[C@@H]4CC[C@@H]5C[C@@H](OCc6ccccc6)CC[C@]5(C)[C@H]4CC[C@]3(C)[C@H]2[C@@H]1C`, the concentration for half-maximal inhibition (IC50) in assay [1] is 67.2 µM; in assay [2], 28.2 µM; in assay [3], more than 100 µM; in assay [4] it was more than 100 µM; in assay [6], 93 µM; in assay [7], 44 µM.

For the compound `C[C@@H](CC[C@H]1O[C@H]2C[C@H]3[C@@H]4CC[C@@H]5C[C@@H](OCc6ccc(F)cc6)CC[C@]5(C)[C@H]4CC[C@]3(C)[C@H]2[C@@H]1C)CN(C)C`, the IC50 in assay [1] was 4.02 µM; in assay [2] it was more than 100 µM; in assay [3] it was 14.1 µM; in assay [4], more than 100 µM; in assay [6], 17.9 µM; in assay [7], 27.2 µM. The “Ratio IC50” value in assay [8] came to 9.5.

In the case of `C[C@@H](CC[C@H]1O[C@H]2C[C@H]3[C@@H]4CC[C@@H]5C[C@@H](OCc6ccccc6)CC[C@]5(C)[C@H]4CC[C@]3(C)[C@H]2[C@@H]1C)CN1CCNCC1`, the IC50 in assay [1], in assay [2], in assay [3], in assay [4], in assay [6] and in assay [7] was more than 100 µM throughout.

Turning to `COc1ccc(CO[C@H]2CC[C@@]3(C)[C@H](CC[C@@H]4[C@@H]3CC[C@]3(C)[C@H]5[C@H](C)[C@@H](CC[C@H](C)CN6CCN(C)CC6)O[C@H]5C[C@@H]43)C2)cc1`, the 50% inhibitory concentration (IC50) in assay [1] is 6.78 µM; in assay [2], more than 100 µM; in assay [3] it was 8.37 µM; in assay [4], 9.12 µM; in assay [6] it was 3.74 µM; in assay [7], 21.4 µM.

For `COc1ccc(CO[C@H]2CC[C@@]3(C)[C@H](CC[C@@H]4[C@@H]3CC[C@]3(C)[C@H]5[C@H](C)[C@@H](CC[C@H](C)CN6CCCC6)O[C@H]5C[C@@H]43)C2)cc1`, the IC50 in assay [1] was more than 100 µM; in assay [2], 69.9 µM; in assay [3], more than 100 µM; in assay [4], more than 100 µM; in assay [6], more than 100 µM; in assay [7] it was more than 100 µM.

For the compound `C[C@@H](CC[C@H]1O[C@H]2C[C@H]3[C@@H]4CC[C@@H]5C[C@@H](OCc6ccc(F)cc6)CC[C@]5(C)[C@H]4CC[C@]3(C)[C@H]2[C@@H]1C)CN1CCN(C)CC1`, the IC50 is 13.9 µM in assay [1]; more than 100 µM in assay [2]; more than 100 µM in assay [3]; more than 100 µM in assay [4]; 44.1 µM in assay [6]; 35.6 µM in assay [7].

`C[C@@H](CC[C@H]1O[C@H]2C[C@H]3[C@@H]4CC[C@@H]5C[C@@H](OCc6ccc(F)cc6)CC[C@]5(C)[C@H]4CC[C@]3(C)[C@H]2[C@@H]1C)CN1CCCC1`: the IC50 was determined as 8.98 µM in assay [1]; 12.9 µM in assay [2]; 7.1 µM in assay [3]; 9.68 µM in assay [4]; 5.13 µM in assay [6]; 4.38 µM in assay [7]. Further, the “Ratio IC50” value in assay [5] turned out to be 9.2.

`CCN(CC)C[C@@H](C)CC[C@H]1O[C@H]2C[C@H]3[C@@H]4CC[C@@H]5C[C@@H](OCc6ccc(F)cc6)CC[C@]5(C)[C@H]4CC[C@]3(C)[C@H]2[C@@H]1C`: the IC50 in assay [1] was 18 µM; in assay [2] it was more than 100 µM; in assay [3] it was more than 100 µM; in assay [4], more than 100 µM; in assay [6] it was 45.2 µM; in assay [7], 26.4 µM.

For the compound `O=c1[nH]cc(F)c(=O)[nH]1` [FLUOROURACIL], the half-maximal inhibitory concentration (IC50) in assay [3] is 48.7 µM; in assay [7], 10.2 µM.

Take `C[C@H]1CC[C@@]2(OC1)O[C@H]1C[C@H]3[C@@H]4CC[C@@H]5C[C@@H](O)CC[C@]5(C)[C@H]4CC[C@]3(C)[C@H]1[C@@H]2C` [SARSASAPOGENIN]: the IC50 in assay [1] is 38.1 µM; in assay [2] it was more than 100 µM; in assay [3] it was more than 100 µM; in assay [4], more than 100 µM; in assay [6], 49.2 µM; in assay [7], 40.3 µM.

For `COc1ccc(CO[C@H]2CC[C@@]3(C)[C@H](CC[C@@H]4[C@@H]3CC[C@]3(C)[C@H]5[C@H](C)[C@@H](CC[C@H](C)CN(C)C)O[C@H]5C[C@@H]43)C2)cc1`, the IC50 in assay [1] is more than 100 µM; in assay [2] it was 23.4 µM; in assay [3], more than 100 µM; in assay [4], more than 100 µM; in assay [6], more than 100 µM; in assay [7] it was 79.5 µM.

For the compound `C[C@@H](CC[C@H]1O[C@H]2C[C@H]3[C@@H]4CC[C@@H]5C[C@@H](OCc6ccccc6)CC[C@]5(C)[C@H]4CC[C@]3(C)[C@H]2[C@@H]1C)CN(C)C`, the concentration for half-maximal inhibition (IC50) in assay [1] was 91.3 µM; in assay [2], 28.3 µM; in assay [3], more than 100 µM; in assay [4], more than 100 µM; in assay [6] it was more than 100 µM; in assay [7] it was 42.7 µM.

Turning to `CO[C@H]1CC[C@@]2(C)[C@H](CC[C@@H]3[C@@H]2CC[C@]2(C)[C@H]4[C@H](C)[C@@H](CC[C@@H](C)CN5CCNCC5)O[C@H]4C[C@@H]32)C1`, the IC50 in assay [7] was determined as 35.5 µM.

Take `C[C@@H](CC[C@H]1O[C@H]2C[C@H]3[C@@H]4CC[C@@H]5C[C@@H](OCc6ccccc6)CC[C@]5(C)[C@H]4CC[C@]3(C)[C@H]2[C@@H]1C)CN1CCCC1`: the IC50 in assay [1] is 27.1 µM; in assay [2], 26.8 µM; in assay [3] it was 23.6 µM; in assay [4], 36 µM; in assay [6], 37.6 µM; in assay [7], 30.4 µM.

On to `C[C@@H](CC[C@H]1O[C@H]2C[C@H]3[C@@H]4CC[C@@H]5C[C@@H](OCc6ccccc6)CC[C@]5(C)[C@H]4CC[C@]3(C)[C@H]2[C@@H]1C)CN1CCN(C)CC1`, for which the concentration for half-maximal inhibition (IC50) in assay [1] was more than 100 µM; in assay [2] it was 70.8 µM; in assay [3], more than 100 µM; in assay [4], more than 100 µM; in assay [6], more than 100 µM; in assay [7], 52.3 µM.

In the case of `CO[C@H]1CC[C@@]2(C)[C@H](CC[C@@H]3[C@@H]2CC[C@]2(C)[C@H]4[C@H](C)[C@@H](CC[C@@H](C)CN5CCCC5)O[C@H]4C[C@@H]32)C1`, the IC50 in assay [7] came out at 4.24 µM.

Consider `C[C@H](CO)CC[C@H]1O[C@H]2C[C@H]3[C@@H]4CC[C@@H]5C[C@@H](OCc6ccc(F)cc6)CC[C@]5(C)[C@H]4CC[C@]3(C)[C@H]2[C@@H]1C`, for which the half-inhibitory concentration (IC50) in assay [1] is 25.1 µM; in assay [2] it was 11.7 µM; in assay [3] it was 38.8 µM; in assay [4], 97.3 µM; in assay [6], 44.1 µM; in assay [7] it was 14.5 µM.

As for `C[C@H](CO)CC[C@H]1O[C@H]2C[C@H]3[C@@H]4CC[C@@H]5C[C@@H](OCc6ccccc6)CC[C@]5(C)[C@H]4CC[C@]3(C)[C@H]2[C@@H]1C`, the half-maximal inhibitory concentration (IC50) in assay [1] came out at 34.4 µM; in assay [2], 10.1 µM; in assay [3], 19.8 µM; in assay [4] it was 25 µM; in assay [6], 22.1 µM; in assay [7] it was 14.5 µM.

Regarding `CCN(CC)C[C@@H](C)CC[C@H]1O[C@H]2C[C@H]3[C@@H]4CC[C@@H]5C[C@@H](OCc6ccc(OC)cc6)CC[C@]5(C)[C@H]4CC[C@]3(C)[C@H]2[C@@H]1C`, the IC50 in assay [1] was 14.3 µM; in assay [2] it was more than 100 µM; in assay [3], 12.9 µM; in assay [4], 14.7 µM; in assay [6], 4.83 µM; in assay [7], 13.9 µM.
